From ChEMBL document CHEMBL1201862, “PubChem BioAssay data set” (2004)
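Method: 48-hour compound exposure of cells in 96-well plates, five concentrations, linear interpolation of endpoints. GI50 = concentration required for 50% inhibition of growth.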 Activity calls are given as the source filed them. Rule as the data show it: active = GI50 up to about 1.1 µM and inactive = higher.

Assays:
Assay in all cases: growth of human tumour cells (NCI), 48 h
786-0 = system: 786-0
A498 = system: A498
A549 = system: A549
ACHN = system: ACHN
CAKI-1 = system: CAKI-1
CCRF-CEM = system: CCRF-CEM
COLO 205 = system: COLO 205
DLD-1 = system: DLD-1
DMS-114 = system: DMS-114
DMS-273 = system: DMS-273
EKVX = system: EKVX
HCC 2998 = system: HCC 2998
HCT-116 = system: HCT-116
HCT-15 = system: HCT-15
HL-60 = system: HL-60
HOP-18 = system: HOP-18
HOP-62 = system: HOP-62
HOP-92 = system: HOP-92
HT-29 = system: HT-29
IGROV-1 = system: IGROV-1
K562 = system: K562
KM-20L2 = system: KM-20L2
KM12 = system: KM12
LOX IMVI = system: LOX IMVI
LXFL 529 = system: LXFL 529
M14 = system: M14
M19-MEL = system: M19-MEL
MOLT-4 = system: MOLT-4
Malme-3M = system: Malme-3M
NCI-H226 = system: NCI-H226
NCI-H23 = system: NCI-H23
NCI-H460 = system: NCI-H460
NCI-H522 = system: NCI-H522
OVCAR-3 = system: OVCAR-3
OVCAR-4 = system: OVCAR-4
OVCAR-5 = system: OVCAR-5
OVCAR-8 = system: OVCAR-8
RPMI-8226 = system: RPMI-8226
RXF 393 = system: RXF 393
RXF 631 = system: RXF 631
SF-268 = system: SF-268
SF-295 = system: SF-295
SF-539 = system: SF-539
SK-MEL-28 = system: SK-MEL-28
SK-MEL-2 = system: SK-MEL-2
SK-MEL-5 = system: SK-MEL-5
SK-OV-3 = system: SK-OV-3
SN12C = system: SN12C
SNB-19 = system: SNB-19
SNB-75 = system: SNB-75
SNB-78 = system: SNB-78
SW-620 = system: SW-620
TK-10 = system: TK-10
U-251 = system: U-251
UACC-257 = system: UACC-257
UACC-62 = system: UACC-62
UO-31 = system: UO-31
XF498 = system: XF498
SR = system: SR

Measured: GI50

O=C1c2ccccc2C(=O)N1CCn1ccc(NC(c2ccccc2)(c2ccccc2)c2ccccc2)nc1=O
22.5 µM: HCT-15
inactive: 786-0 32 µM | A498 18.2 µM | A549 28.2 µM | ACHN 22.5 µM | CAKI-1 9.62 µM | CCRF-CEM 20.1 µM | COLO 205 17.6 µM | DLD-1 19.1 µM | DMS-114 18.4 µM | DMS-273 17.3 µM | EKVX 49.1 µM | HCC 2998 21.4 µM | HCT-116 17.5 µM | HL-60 19 µM | HOP-18 24.2 µM | HOP-62 17.5 µM | HOP-92 18.5 µM | HT-29 16.8 µM | IGROV-1 22.2 µM | K562 20.3 µM | KM-20L2 14.1 µM | KM12 20.8 µM | LOX IMVI 17.1 µM | LXFL 529 28.4 µM | M14 22 µM | M19-MEL 16.8 µM | MOLT-4 17.5 µM | Malme-3M 20.3 µM | NCI-H226 18.7 µM | NCI-H23 24 µM | NCI-H460 23.6 µM | NCI-H522 20.2 µM | OVCAR-3 24.3 µM | OVCAR-4 25.5 µM | OVCAR-5 25.1 µM | OVCAR-8 36.7 µM | RPMI-8226 19.8 µM | RXF 393 18.8 µM | RXF 631 15 µM | SF-268 19.2 µM | SF-295 15.1 µM | SF-539 16 µM | SK-MEL-28 18.2 µM | SK-MEL-2 20.5 µM | SK-MEL-5 17.5 µM | SK-OV-3 43.8 µM | SN12C 26.2 µM | SNB-19 25.2 µM | SNB-75 21.8 µM | SNB-78 30.8 µM | SW-620 29.3 µM | TK-10 26.9 µM | U-251 16.4 µM | UACC-257 18 µM | UACC-62 12.6 µM | UO-31 21.2 µM | XF498 13.9 µM

CN(C)/C=N/c1nc2c(ncn2C2OC(CO)C(O)C2O)c(=O)[nH]1 (stereo unspecified)
inactive: 786-0 > 100 µM | A498 > 100 µM | A549 > 100 µM | ACHN > 100 µM | CAKI-1 > 100 µM | COLO 205 > 100 µM | DLD-1 > 100 µM | DMS-114 > 100 µM | DMS-273 > 100 µM | EKVX > 100 µM | HCC 2998 > 100 µM | HCT-116 > 100 µM | HL-60 > 100 µM | HOP-18 > 100 µM | HOP-62 > 100 µM | HOP-92 > 100 µM | HT-29 > 100 µM | IGROV-1 > 100 µM | K562 > 100 µM | KM-20L2 > 100 µM | KM12 > 100 µM | LXFL 529 > 100 µM | M14 > 100 µM | M19-MEL > 100 µM | MOLT-4 > 100 µM | Malme-3M > 100 µM | NCI-H226 > 100 µM | NCI-H23 > 100 µM | NCI-H460 > 100 µM | OVCAR-3 > 100 µM | OVCAR-4 > 100 µM | OVCAR-5 > 100 µM | OVCAR-8 > 100 µM | RPMI-8226 > 100 µM | RXF 393 > 100 µM | RXF 631 > 100 µM | SF-268 > 100 µM | SF-295 > 100 µM | SF-539 > 100 µM | SK-MEL-2 > 100 µM | SK-MEL-5 > 100 µM | SK-OV-3 > 100 µM | SN12C > 100 µM | SNB-19 > 100 µM | SNB-75 > 100 µM | SNB-78 > 100 µM | SR > 100 µM | SW-620 > 100 µM | TK-10 > 100 µM | U-251 > 100 µM | UACC-257 > 100 µM | UACC-62 > 100 µM | UO-31 > 100 µM | XF498 > 100 µM
> 100 µM: HCT-15

Cc1nc(N)c(-c2ccccc2)s1
33.8 µM: HCT-15
inactive: 786-0 77.6 µM | A498 > 32.4 µM | A549 68.9 µM | ACHN > 100 µM | CAKI-1 > 92.7 µM | CCRF-CEM 36.5 µM | COLO 205 > 47 µM | DLD-1 > 82.6 µM | DMS-114 > 76 µM | DMS-273 39.9 µM | EKVX > 94.6 µM | HCC 2998 > 100 µM | HCT-116 31.7 µM | HL-60 28.6 µM | HOP-18 > 100 µM | HOP-62 > 100 µM | HOP-92 > 100 µM | HT-29 > 58.3 µM | IGROV-1 > 78.2 µM | K562 > 70.5 µM | KM-20L2 > 70.8 µM | KM12 > 74.6 µM | LOX IMVI 52.4 µM | LXFL 529 > 100 µM | M14 40.9 µM | M19-MEL > 100 µM | MOLT-4 > 76.7 µM | Malme-3M > 100 µM | NCI-H226 > 100 µM | NCI-H23 > 100 µM | NCI-H460 51.1 µM | NCI-H522 42.7 µM | OVCAR-3 > 92 µM | OVCAR-4 > 100 µM | OVCAR-5 > 100 µM | OVCAR-8 > 76.7 µM | RPMI-8226 > 49.1 µM | RXF 393 > 48.2 µM | RXF 631 > 100 µM | SF-268 > 100 µM | SF-295 32.7 µM | SF-539 70.8 µM | SK-MEL-28 > 100 µM | SK-MEL-2 32.3 µM | SK-MEL-5 43.5 µM | SK-OV-3 38.3 µM | SN12C 81.3 µM | SNB-19 80.7 µM | SNB-75 86.7 µM | SNB-78 68.4 µM | SW-620 18.3 µM | TK-10 > 100 µM | U-251 > 48.5 µM | UACC-257 53.7 µM | UACC-62 > 72.1 µM | UO-31 > 100 µM | XF498 34.6 µM
